Measured values from PubChem BioAssay AID1745844 (Carcinogenic Potency Database (CPDB), 2022).
Active and inactive are the calls of the source. No rule for the calls is given here.

Test system: rodent lifetime carcinogenesis bioassay, tumor incidence TD50
Experiment: carcinogenic potency in animals, long-term in vivo studies, CPDB compilation (AID 1745844)
Conditions: for carcinogen call: lesion: one or several types, types not named

C[C@@H]1Cc2c(Cl)cc(C(=O)N[C@@H](Cc3ccccc3)C(=O)O)c(O)c2C(=O)O1
TD50 (mouse, strain B6C3F1, females, in feed, site: liver, lesion: hepatocellular adenoma, dosed 104 weeks, study length 104 weeks): 109 mg/kg/day | TD50 (mouse, strain B6C3F1, females, in feed, site: liver, lesion: hepatocellular carcinoma, dosed 104 weeks, study length 104 weeks): 34.8 mg/kg/day | TD50 (mouse, strain B6C3F1, males, in feed, site: kidney, lesion: adenoma, dosed 104 weeks, study length 104 weeks): 4.64 mg/kg/day | TD50 (mouse, strain B6C3F1, males, in feed, site: kidney, lesion: carcinoma, dosed 104 weeks, study length 104 weeks): 10.3 mg/kg/day | TD50 (mouse, strain B6C3F1, males, in feed, site: kidney, lesion: several types, types named in the paper, dosed 104 weeks, study length 104 weeks): 3.53 mg/kg/day | TD50 (mouse, strain B6C3F1, males, in feed, site: liver, lesion: hepatocellular adenoma, dosed 104 weeks, study length 104 weeks): 48.1 mg/kg/day | TD50 (mouse, strain B6C3F1, males, in feed, site: liver, lesion: hepatocellular carcinoma, dosed 104 weeks, study length 104 weeks): 58.7 mg/kg/day | carcinogen call (rat, strain DA (from Hannover), females, by gavage, site: kidney, dosed 110 weeks, study length 110 weeks): negative (inactive) | TD50 (rat, strain DA (from Hannover), males, by gavage, site: kidney, lesion: adenocarcinoma, dosed 110 weeks, study length 110 weeks): 0.368 mg/kg/day | TD50 (rat, strain DA (from Hannover), males, by gavage, site: urinary bladder, lesion: transitional-cell carcinoma, dosed 110 weeks, study length 110 weeks): 1.18 mg/kg/day | TD50 (rat, strain Fischer 344, females, by gavage, site: kidney + mammary gland, lesion: tubule adenoma + tubule carcinoma + fibroadenoma, dosed 103 weeks, study length 104 weeks): 0.386 mg/kg/day | TD50 (rat, strain Fischer 344, females, by gavage, site: kidney, lesion: tubule adenoma + tubule carcinoma, dosed 103 weeks, study length 104 weeks): 0.485 mg/kg/day | TD50 (rat, strain Fischer 344, females, by gavage, site: kidney, lesion: tubule adenoma, dosed 103 weeks, study length 104 weeks): 0.813 mg/kg/day | TD50 (rat, strain Fischer 344, females, by gavage, site: kidney, lesion: tubule carcinoma, dosed 103 weeks, study length 104 weeks): 1.31 mg/kg/day | TD50 (rat, strain Fischer 344, females, by gavage, site: mammary gland, lesion: fibroadenoma, dosed 103 weeks, study length 104 weeks): 0.55 mg/kg/day | TD50 (rat, strain Fischer 344, males, by gavage, site: any site (literature study), lesion: several types, types named in the paper, dosed 103 weeks, study length 104 weeks): 0.0863 mg/kg/day | TD50 (rat, strain Fischer 344, males, by gavage, site: kidney, lesion: tubule adenoma + tubule carcinoma + tubule epithelium adenoma + tubular-cell carcinoma, bilateral, dosed 103 weeks, study length 104 weeks): 0.0579 mg/kg/day | TD50 (rat, strain Fischer 344, males, by gavage, site: kidney, lesion: tubule adenoma + tubule epithelium adenoma, dosed 103 weeks, study length 104 weeks): 0.241 mg/kg/day | TD50 (rat, strain Fischer 344, males, by gavage, site: kidney, lesion: tubule carcinoma + tubular-cell carcinoma, bilateral, dosed 103 weeks, study length 104 weeks): 0.0756 mg/kg/day | TD50 (rat, strain Fischer 344, males, by gavage, site: liver, lesion: hepatocellular adenoma + hepatocellular carcinoma + neoplastic nodule, dosed 103 weeks, study length 104 weeks): 2.5 mg/kg/day | TD50 (rat, strain Lewis, females, by gavage, site: kidney, lesion: adenocarcinoma, dosed 110 weeks, study length 110 weeks): 2.56 mg/kg/day | TD50 (rat, strain Lewis, males, by gavage, site: kidney, lesion: adenocarcinoma, dosed 110 weeks, study length 110 weeks): 1.25 mg/kg/day | carcinogen call (rat, strain Wistar, both sexes, by gavage, site: any site (literature study), dosed 50 weeks, study length 110 weeks): negative (inactive)

NNc1nc(-c2ccc(N)cc2)cs1
TD50 (mouse, strain Swiss, females, in feed, site: all sites, lesion: lymphocytic leukemia, dosed 46 weeks, study length 66 weeks): 11.3 mg/kg/day | TD50 (mouse, strain Swiss, females, in feed, site: any site (literature study), lesion: several types, types named in the paper, dosed 46 weeks, study length 66 weeks): 11.3 mg/kg/day | TD50 (rat, strain Sprague-Dawley, females, in feed, site: all sites, lesion: lymphoblastic lymphoma, dosed 46 weeks, study length 75 weeks): 7.09 mg/kg/day | TD50 (rat, strain Sprague-Dawley, females, in feed, site: any site (literature study), lesion: several types, types named in the paper, dosed 46 weeks, study length 75 weeks): 0.582 mg/kg/day | TD50 (rat, strain Sprague-Dawley, females, in feed, site: mammary gland, lesion: adenocarcinoma, dosed 46 weeks, study length 75 weeks): 1.02 mg/kg/day | TD50 (rat, strain Sprague-Dawley, females, in feed, site: mammary gland, lesion: several types, types named in the paper, dosed 46 weeks, study length 75 weeks): 1.03 mg/kg/day
